Counter-ions that a name gives are not always drawn. Like-named read-outs stand apart in the source and are kept apart here.
Columns and labels:
human recombinant MAO A = biological target: T1, human recombinant MAO A (Homo sapiens, UniProt P21397); assay: biochemical; conditions: for inhibition at 10 µM: read-out: MAO A % inhibition at 10 μM, mean ±SEM of three
T1 construct: purchased Sigma Aldrich, Milan, Italy
T1 sequence (P21397 1-527): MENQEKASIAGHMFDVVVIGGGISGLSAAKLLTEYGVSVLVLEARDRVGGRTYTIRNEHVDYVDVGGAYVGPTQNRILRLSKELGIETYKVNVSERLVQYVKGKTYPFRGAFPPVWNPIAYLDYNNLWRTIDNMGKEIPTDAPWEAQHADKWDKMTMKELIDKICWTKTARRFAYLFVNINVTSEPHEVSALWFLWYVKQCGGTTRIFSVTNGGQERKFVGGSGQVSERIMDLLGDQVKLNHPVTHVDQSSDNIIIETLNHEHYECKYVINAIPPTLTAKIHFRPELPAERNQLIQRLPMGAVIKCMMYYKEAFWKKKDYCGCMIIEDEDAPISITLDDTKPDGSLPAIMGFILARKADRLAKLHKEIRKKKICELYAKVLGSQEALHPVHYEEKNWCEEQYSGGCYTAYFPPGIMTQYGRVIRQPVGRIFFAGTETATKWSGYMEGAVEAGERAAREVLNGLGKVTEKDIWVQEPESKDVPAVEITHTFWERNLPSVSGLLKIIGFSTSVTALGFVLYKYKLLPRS
Procedure: (§1) In vitro enzymatic screening toward ChEs was carried out according to the known Ellman’s protocol, by using eeAChE and esBChE as highly homologous and cheaper surrogates for human enzymes. The enzyme inhibition assays on human MAOs were performed by applying already reported methods.
(§2) All enzymes and reagents were purchased from Sigma Aldrich, Milan, Italy. Inhibition of human recombinant MAO A and B was assayed by monitoring the fluorescence of 4-hydroxyquinoline produced from the oxidation of substrate kynuramine, following a previously published method. Acetylcholinesterase from electric eel and butyrylcholinesterase from equine serum were used in the Ellman’s spectrophotometric method as already described. In all cases, a 96-well plate procedure was used with an Infinite M1000 Pro plate reader (Tecan, Cernusco sul Naviglio, Italy). Inhibition values were determined as IC50 values by statistical analysis using Prism (GraphPad Prism version 5.00 for Windows, GraphPad Software, San Diego, CA, USA).

human recombinant MAO B = biological target: T2, human recombinant MAO B (Homo sapiens, UniProt P27338); assay: Human recombinant MAO B inhibition (kynuramine fluorescence); type: biochemical; conditions: for IC50: mean ±SEM of three independent experiments
T2 construct: purchased Sigma Aldrich, Milan, Italy
T2 sequence (P27338 1-520): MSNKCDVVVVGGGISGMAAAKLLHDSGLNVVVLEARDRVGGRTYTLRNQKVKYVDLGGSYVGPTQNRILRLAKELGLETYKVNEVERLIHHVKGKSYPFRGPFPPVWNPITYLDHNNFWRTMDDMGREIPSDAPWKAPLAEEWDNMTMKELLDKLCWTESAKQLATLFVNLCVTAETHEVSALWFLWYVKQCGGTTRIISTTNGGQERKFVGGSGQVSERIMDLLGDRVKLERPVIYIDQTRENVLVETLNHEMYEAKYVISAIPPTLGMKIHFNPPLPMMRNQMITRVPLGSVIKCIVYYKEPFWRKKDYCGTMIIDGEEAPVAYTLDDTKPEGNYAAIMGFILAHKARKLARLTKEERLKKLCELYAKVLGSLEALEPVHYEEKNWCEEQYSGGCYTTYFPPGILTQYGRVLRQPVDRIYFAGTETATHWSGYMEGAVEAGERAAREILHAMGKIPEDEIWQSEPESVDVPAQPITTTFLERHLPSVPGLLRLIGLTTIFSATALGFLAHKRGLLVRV
Procedure: as §1, §2

[1] = biological target: T3, Acetylcholinesterase from electric eel (Electrophorus electricus, UniProt O42275); assay: biochemical; type: biochemical; conditions: for IC50: AChE from electric eel, mean ±SEM of three
T3 construct: purchased Sigma Aldrich, Milan, Italy
Procedure: as §1, §2

[2] = biological target: T4, butyrylcholinesterase from equine serum (Equus caballus, UniProt P81908); assay: biochemical; type: biochemical; conditions: for inhibition at 10 µM: read-out: BChE % inhibition at 10 μM; for IC50: BChE from equine serum, mean ±SEM of three
T4 construct: butyrylcholinesterase from equine serum; purchased Sigma Aldrich, Milan, Italy; host or cells: equine serum
Procedure: as §1, §2

rat MAO B = tested on: rat MAO B; set-up: method as in PMID 19810674; conditions: cited from earlier work
[3] = set-up: method as in PMID 19810674; conditions: cited from earlier work
CYP450s = tested on: CYP450s; set-up: method as in PMID 19810674; conditions: cited from earlier work
eeAChE = biological target: T5, eeAChE (Electrophorus electricus, UniProt O42275); assay: Inhibition kinetics of eeAChE (Lineweaver-Burk); type: biochemical; conditions: for mechanism of inhibition toward eeAChE: Lineweaver–Burk plots; for Ki: eeAChE, inhibitor 0 to 5 μM, acetylthiocholine 33 to 200 μM
T5 construct: purchased Sigma Aldrich, Milan, Italy
Procedure: as §2, with “Enzyme kinetics were used as tool for investigating the inhibition mechanism toward AChE. Compounds 8, bearing a meta-bromobenzyloxy substituent at coumarin C7, and 24, branched with a glycinamide chain as the variation at position 4, were chosen as prototypes bearing different head-or-tail modification schemes. […]. All” for “All”, “USA). […]” for “USA).”

[4] = MAO B IC50, human recombinant MAO
[5] = human recombinant MAO, mean ±SEM of three independent experiments, read-out: MAO A IC50
[6] = human recombinant MAO, read-out: MAO B IC50

T5 sequence (O42275 24-633): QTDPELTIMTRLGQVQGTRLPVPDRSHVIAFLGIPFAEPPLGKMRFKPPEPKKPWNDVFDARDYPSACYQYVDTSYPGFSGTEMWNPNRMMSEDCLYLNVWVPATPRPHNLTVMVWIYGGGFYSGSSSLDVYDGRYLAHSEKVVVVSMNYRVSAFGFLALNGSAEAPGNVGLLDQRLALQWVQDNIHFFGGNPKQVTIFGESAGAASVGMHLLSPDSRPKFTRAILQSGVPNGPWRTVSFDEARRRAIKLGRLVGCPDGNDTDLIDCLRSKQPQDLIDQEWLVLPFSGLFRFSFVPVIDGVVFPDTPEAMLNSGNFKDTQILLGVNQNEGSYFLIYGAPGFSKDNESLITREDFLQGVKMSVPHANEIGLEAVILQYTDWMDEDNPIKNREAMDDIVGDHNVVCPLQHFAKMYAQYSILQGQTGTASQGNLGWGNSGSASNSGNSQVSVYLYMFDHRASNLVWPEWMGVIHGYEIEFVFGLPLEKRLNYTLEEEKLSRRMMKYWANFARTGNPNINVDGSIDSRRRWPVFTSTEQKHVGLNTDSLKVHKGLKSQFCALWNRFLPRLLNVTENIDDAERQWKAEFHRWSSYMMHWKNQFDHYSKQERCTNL
T3 sequence (O42275 24-633): as above
T4 sequence (P81908 whole entry): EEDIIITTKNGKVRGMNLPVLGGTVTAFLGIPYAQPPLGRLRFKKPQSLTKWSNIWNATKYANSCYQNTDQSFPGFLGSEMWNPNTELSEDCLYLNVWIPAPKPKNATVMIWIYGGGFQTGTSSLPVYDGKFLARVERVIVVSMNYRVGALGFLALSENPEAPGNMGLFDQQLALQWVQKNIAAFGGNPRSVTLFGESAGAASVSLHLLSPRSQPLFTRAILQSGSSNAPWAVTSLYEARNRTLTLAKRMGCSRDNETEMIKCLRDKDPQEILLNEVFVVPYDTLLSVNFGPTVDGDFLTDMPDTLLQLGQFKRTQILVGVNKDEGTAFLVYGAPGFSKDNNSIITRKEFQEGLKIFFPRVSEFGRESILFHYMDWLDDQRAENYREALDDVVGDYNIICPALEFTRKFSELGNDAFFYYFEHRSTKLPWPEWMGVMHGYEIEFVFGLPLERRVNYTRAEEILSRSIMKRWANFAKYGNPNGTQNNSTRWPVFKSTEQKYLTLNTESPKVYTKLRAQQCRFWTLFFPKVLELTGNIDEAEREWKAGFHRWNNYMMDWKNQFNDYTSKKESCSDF

In the case of `CNCc1cc(=O)oc2cc(OCc3cccc(Cl)c3)ccc12` [compound 3, 7-[(3-chlorobenzyl)oxy]-4-[(methylamino)methyl]-2H-chromen-2-one], the IC50 (human recombinant MAO A) is reported as 650 ± 20 nM, the IC50 (human recombinant MAO B; [4]) is reported as 3.9 ± 0.8 nM and the “SI (MAO A/MAO B selectivity)” value (human recombinant MAO B; human MAOs) is reported as 167. For the same compound, the IC50 [1] was 6200 ± 700 nM, the inhibition at 10 µM [2] was 43 ± 5% and the “SI, IC50 MAO A/IC50 MAO B” value (rat MAO B; rat MAOs) was 457. For the same compound, the IC50 (rat MAO B; rat enzyme) was 13 nM, the “blood–brain barrier penetration” value [3] was “rapid” and the CYP450s liability (CYP450s) was “poor”.
For `CNCc1cc(=O)oc2cc(OCc3cccc(Br)c3)ccc12` [compound 8, 7-[(3-bromobenzyl)oxy]-4-[(methylamino)methyl]-2H-chromen-2-one], the IC50 (human recombinant MAO A; [5]) was 2310 ± 40 nM, the IC50 (human recombinant MAO B; [6]) was 2.2 ± 0.1 nM and the IC50 [1] was 2000 ± 40 nM. The IC50 [2] was 2900 ± 400 nM, the “mechanism of inhibition toward eeAChE” value (eeAChE) was “mixed-type” and the Ki (eeAChE) was 2910 nM.
Work on `NCc1cc(=O)oc2cc(OCc3cccc(Cl)c3)ccc12` [compound 18, 4-(aminomethyl)-7-[(3-chlorobenzyl)oxy]-2H-chromen-2-one] yielded an inhibition at 10 µM (human recombinant MAO A; human recombinant MAO) of 46 ± 3%, an IC50 (human recombinant MAO B; [6]) of 66 ± 15 nM and an IC50 [1] of 17000 ± 4000 nM. For the same compound, the inhibition at 10 µM [2] was 20 ± 7%.
For `CN(C)Cc1cc(=O)oc2cc(OCc3cccc(Cl)c3)ccc12` [compound 19, 7-[(3-chlorobenzyl)oxy]-4-[(dimethylamino)methyl]-2H-chromen-2-one], the IC50 (human recombinant MAO A; [5]) was 9200 ± 700 nM, the IC50 (human recombinant MAO B; [6]) was 213 ± 2 nM and the IC50 [1] was 8300 ± 2000 nM. It also gave an IC50 [2] of 7000 ± 1100 nM.
For `CCCNCc1cc(=O)oc2cc(OCc3cccc(Cl)c3)ccc12` [compound 20, 7-[(3-chlorobenzyl)oxy]-4-[(propylamino)methyl]-2H-chromen-2-one], the inhibition at 10 µM (human recombinant MAO A; human recombinant MAO) was 48 ± 1%, the IC50 (human recombinant MAO B; [6]) was 9.4 ± 3.5 nM and the IC50 [1] was 4900 ± 1400 nM. The IC50 [2] was 3600 ± 800 nM.
With `CCCCNCc1cc(=O)oc2cc(OCc3cccc(Cl)c3)ccc12` [compound 21, 4-[(butylamino)methyl]-7-[(3-chlorobenzyl)oxy]-2H-chromen-2-one] the inhibition at 10 µM (human recombinant MAO A; human recombinant MAO) was 41 ± 3%, the IC50 (human recombinant MAO B; [6]) was 164 ± 2 nM and the inhibition at 10 µM ([1]; read-out: AChE % inhibition at 10 μM) was 39 ± 1%. The IC50 [2] was 4800 ± 300 nM.
`C#CCNCc1cc(=O)oc2cc(OCc3cccc(Cl)c3)ccc12` [compound 22, 7-[(3-Chlorobenzyl)oxy]-4-[(prop-2-yn-1-ylamino)methyl]-2H-chromen-2-one] showed an IC50 (human recombinant MAO A; [5]) of 1100 ± 100 nM, an IC50 (human recombinant MAO B; [6]) of 4.1 ± 1.1 nM and an IC50 [1] of 2100 ± 200 nM. It also gave an inhibition at 10 µM [2] of 33 ± 6%.
In the case of `C#CCN(C)Cc1cc(=O)oc2cc(OCc3cccc(Cl)c3)ccc12` [compound 23, 7-[(3-Chlorobenzyl)oxy]-4-{[methyl(prop-2-yn-1-yl)amino]methyl}-2H-chromen-2-one hydrochloride], the IC50 (human recombinant MAO A) is reported as 1700 ± 100 nM, the IC50 (human recombinant MAO B; [4]) is reported as 84 ± 2 nM and the IC50 [1] is reported as 5600 ± 700 nM. The inhibition at 10 µM [2] was 28 ± 1%.
With `NC(=O)CNCc1cc(=O)oc2cc(OCc3cccc(Cl)c3)ccc12` [compound 24, N^2-({7-[(3-chlorobenzyl)oxy]-2-oxo-2H-chromen-4-yl}methyl)glycinamide] the IC50 (human recombinant MAO A; [5]) was 77 ± 14 nM, the IC50 (human recombinant MAO B; [6]) was 61 ± 13 nM and the IC50 [1] was 2200 ± 700 nM. For the same compound, the inhibition at 10 µM [2] was 13 ± 2%, the “mechanism of inhibition toward eeAChE” value (eeAChE) was “mixed-type” and the Ki (eeAChE) was 3630 nM.
Compound `CNC(=O)CNCc1cc(=O)oc2cc(OCc3cccc(Cl)c3)ccc12` [compound 25, N^2-({7-[(3-Chlorobenzyl)oxy]-2-oxo-2H-chromen-4-yl}methyl)-N^1-methylglycinamide] has an IC50 (human recombinant MAO A; [5]) of 2600 ± 100 nM, an IC50 (human recombinant MAO B; [6]) of 1.1 ± 0.3 nM and an IC50 [1] of 5300 ± 1400 nM. For the same compound, the inhibition at 10 µM [2] was < 5%.
With `CN(C)C(=O)CNCc1cc(=O)oc2cc(OCc3cccc(Cl)c3)ccc12` [compound 26, N^2-({7-[(3-Chlorobenzyl)oxy]-2-oxo-2H-chromen-4-yl}methyl)-N^1,N^1-dimethylglycinamide] the IC50 (human recombinant MAO A; [5]) was 2500 ± 500 nM, the IC50 (human recombinant MAO B; [6]) was 30 ± 1 nM and the IC50 [1] was 4300 ± 600 nM. The inhibition at 10 µM [2] was 34 ± 2%.
With `COc1cc(COc2ccc3c(CNCC(N)=O)cc(=O)oc3c2)cc(OC)c1` [compound 27, N^2-({7-[(3,5-dimethoxybenzyl)oxy]-2-oxo-2H-chromen-4-yl}methyl)glycinamide] the IC50 (human recombinant MAO A; [5]) was 5900 ± 500 nM, the IC50 (human recombinant MAO B; [6]) was 13 ± 1 nM and the IC50 [1] was 4400 ± 800 nM. For the same compound, the inhibition at 10 µM [2] was 41 ± 2%.
